IC50 data for six compounds are collected here from patent US11524951B2, “2-(2,4,5-substituted-anilino)pyrimidine compounds” (AstraZeneca AB, priority 2011, dated 2022).

pIC50: −log10 of the molar value.

What all share (format): cell-based
The target in one experiment is T1, L858R/T790M EGFR (Homo sapiens, UniProt P00533, L858R/T790M).
T1 construct: Assays to measure cellular phosphorylation of endogenous p-EGFR in cell lysates; endogenous in cells; host or cells: NCI-H1975 (human lung cell line)
Nature of the experiment: L858R/T790M EGFR (double mutant) cellular phosphorylation assay. As to conditions: NCI-H1975 human lung cells; endogenous p-EGFR in cell lysates by ELISA; 2 h with compound. For orientation: In an ELISA, binding on a coated surface is turned into a signal by an enzyme label.

The target of the next experiment is T2, Exon19 deletion EGFR (Homo sapiens, UniProt P00533, DEL746-750).
T2 construct: Assays to measure cellular phosphorylation of endogenous p-EGFR in cell lysates; endogenous in cells; host or cells: PC9 (human lung cell line)
As to the kind of experiment: Exon19 deletion EGFR (activating single mutant) cellular phosphorylation assay. As to conditions: PC9 human lung cells (Exon 19 deletion EGFR); endogenous p-EGFR in cell lysates by ELISA; 2 h with compound; read-out: Assay 1 (IC50).

A further experiment concerns the target T3, Wild-type EGFR (Homo sapiens, UniProt P00533).
T3 construct: Assays to measure cellular phosphorylation of endogenous p-EGFR in cell lysates; endogenous in cells; host or cells: LoVo (human colon cell line)
As to the kind of experiment: Wild-type EGFR cellular phosphorylation assay. As to conditions: LoVo human colon cells; endogenous p-EGFR in cell lysates by ELISA; 2 h with compound, then stimulated 100 ng/ml for 10 minutes; read-out: Assay 3 (IC50).

T2 sequence (P00533 with tags, fused parts or gaps DEL746-750): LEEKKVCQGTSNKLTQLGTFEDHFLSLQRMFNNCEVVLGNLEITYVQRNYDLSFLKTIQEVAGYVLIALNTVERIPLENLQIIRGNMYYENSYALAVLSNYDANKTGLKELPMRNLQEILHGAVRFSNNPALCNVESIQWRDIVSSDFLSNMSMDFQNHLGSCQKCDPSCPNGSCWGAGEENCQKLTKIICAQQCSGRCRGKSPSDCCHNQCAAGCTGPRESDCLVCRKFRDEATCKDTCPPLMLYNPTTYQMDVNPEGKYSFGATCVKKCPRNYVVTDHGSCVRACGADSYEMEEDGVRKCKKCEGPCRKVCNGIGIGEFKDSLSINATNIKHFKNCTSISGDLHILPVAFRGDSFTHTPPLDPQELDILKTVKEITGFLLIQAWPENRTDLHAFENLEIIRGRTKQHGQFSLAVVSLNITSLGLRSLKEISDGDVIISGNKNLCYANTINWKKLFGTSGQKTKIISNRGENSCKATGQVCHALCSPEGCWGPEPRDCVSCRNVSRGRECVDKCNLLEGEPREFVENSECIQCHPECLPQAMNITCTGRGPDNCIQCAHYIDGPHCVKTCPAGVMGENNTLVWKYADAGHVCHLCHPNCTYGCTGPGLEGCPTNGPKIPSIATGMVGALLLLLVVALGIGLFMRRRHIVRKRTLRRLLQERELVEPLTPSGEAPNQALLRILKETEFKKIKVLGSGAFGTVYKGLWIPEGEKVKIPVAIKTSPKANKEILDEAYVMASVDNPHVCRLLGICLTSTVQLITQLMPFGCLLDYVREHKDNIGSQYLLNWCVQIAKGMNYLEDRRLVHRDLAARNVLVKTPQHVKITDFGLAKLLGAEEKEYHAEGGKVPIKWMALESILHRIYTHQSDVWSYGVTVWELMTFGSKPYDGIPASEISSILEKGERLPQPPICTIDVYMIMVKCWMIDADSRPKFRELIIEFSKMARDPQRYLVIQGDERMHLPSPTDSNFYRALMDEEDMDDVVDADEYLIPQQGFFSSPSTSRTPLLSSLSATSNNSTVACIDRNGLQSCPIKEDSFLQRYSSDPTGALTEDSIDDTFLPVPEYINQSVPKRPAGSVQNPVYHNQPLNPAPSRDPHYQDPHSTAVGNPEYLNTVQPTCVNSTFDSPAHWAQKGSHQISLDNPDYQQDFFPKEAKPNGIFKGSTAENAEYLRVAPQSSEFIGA
T1 sequence (P00533 25-1210 T790M/L858R): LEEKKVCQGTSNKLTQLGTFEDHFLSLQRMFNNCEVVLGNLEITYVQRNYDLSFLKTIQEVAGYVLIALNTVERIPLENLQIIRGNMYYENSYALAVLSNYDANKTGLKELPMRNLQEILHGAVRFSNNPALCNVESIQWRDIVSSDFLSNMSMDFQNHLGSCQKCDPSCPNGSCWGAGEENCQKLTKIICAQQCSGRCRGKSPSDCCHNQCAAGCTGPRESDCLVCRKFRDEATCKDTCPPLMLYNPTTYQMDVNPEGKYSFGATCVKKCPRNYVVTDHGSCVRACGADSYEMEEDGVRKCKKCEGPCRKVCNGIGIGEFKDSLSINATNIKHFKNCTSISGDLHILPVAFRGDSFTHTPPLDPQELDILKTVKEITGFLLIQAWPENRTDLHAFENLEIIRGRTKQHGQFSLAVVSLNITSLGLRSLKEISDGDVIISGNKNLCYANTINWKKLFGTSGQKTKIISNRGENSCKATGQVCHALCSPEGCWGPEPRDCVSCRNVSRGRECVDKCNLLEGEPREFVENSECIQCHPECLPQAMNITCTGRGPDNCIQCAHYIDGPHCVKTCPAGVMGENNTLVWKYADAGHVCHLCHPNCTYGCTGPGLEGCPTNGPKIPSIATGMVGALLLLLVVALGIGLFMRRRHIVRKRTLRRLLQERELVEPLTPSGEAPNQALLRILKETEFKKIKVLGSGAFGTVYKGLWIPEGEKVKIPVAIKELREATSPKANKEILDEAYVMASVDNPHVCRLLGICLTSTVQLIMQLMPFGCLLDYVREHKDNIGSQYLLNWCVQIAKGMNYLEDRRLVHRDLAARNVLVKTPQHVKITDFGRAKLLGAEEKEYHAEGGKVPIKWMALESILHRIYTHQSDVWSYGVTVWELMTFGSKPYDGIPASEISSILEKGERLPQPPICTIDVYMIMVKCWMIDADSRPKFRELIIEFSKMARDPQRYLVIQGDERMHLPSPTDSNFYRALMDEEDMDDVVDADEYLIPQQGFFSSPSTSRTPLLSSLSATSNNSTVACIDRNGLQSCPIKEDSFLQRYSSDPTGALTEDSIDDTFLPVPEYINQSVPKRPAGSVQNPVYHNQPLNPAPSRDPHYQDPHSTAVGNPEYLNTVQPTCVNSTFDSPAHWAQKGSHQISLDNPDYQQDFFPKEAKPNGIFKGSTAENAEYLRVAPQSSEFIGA
T3 sequence (P00533 25-1210): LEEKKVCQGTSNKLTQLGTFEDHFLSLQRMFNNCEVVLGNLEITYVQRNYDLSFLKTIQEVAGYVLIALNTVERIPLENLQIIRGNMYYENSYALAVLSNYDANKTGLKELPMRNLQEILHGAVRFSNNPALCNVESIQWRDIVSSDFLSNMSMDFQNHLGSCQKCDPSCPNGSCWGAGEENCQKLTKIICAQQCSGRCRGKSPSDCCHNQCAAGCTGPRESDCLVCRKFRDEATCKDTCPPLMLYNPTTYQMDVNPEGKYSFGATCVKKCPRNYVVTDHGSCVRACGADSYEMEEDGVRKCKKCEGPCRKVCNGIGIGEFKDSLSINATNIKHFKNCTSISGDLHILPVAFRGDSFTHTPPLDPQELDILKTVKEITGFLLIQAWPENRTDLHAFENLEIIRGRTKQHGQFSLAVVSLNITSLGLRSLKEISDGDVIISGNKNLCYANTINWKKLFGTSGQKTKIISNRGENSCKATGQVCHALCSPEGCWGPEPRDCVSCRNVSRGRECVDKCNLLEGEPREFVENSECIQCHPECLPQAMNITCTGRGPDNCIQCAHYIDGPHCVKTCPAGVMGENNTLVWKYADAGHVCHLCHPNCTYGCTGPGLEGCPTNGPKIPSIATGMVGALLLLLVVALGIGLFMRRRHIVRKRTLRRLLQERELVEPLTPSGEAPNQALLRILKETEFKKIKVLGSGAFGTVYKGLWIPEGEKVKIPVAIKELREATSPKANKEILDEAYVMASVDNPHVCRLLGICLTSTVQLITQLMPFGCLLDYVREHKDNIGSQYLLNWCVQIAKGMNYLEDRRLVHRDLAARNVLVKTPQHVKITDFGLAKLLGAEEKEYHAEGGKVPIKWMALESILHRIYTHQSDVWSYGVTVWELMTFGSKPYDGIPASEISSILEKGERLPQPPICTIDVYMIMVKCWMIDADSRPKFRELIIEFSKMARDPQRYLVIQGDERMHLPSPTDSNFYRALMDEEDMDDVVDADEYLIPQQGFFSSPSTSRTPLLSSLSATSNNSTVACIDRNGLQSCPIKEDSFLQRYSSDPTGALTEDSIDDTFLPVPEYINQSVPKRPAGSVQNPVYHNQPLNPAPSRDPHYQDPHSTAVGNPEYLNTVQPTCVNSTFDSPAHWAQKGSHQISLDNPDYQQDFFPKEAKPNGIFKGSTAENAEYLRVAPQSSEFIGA

As to `C=CC(=O)Nc1cc(Nc2ncc(Cl)c(-c3cnn4ccccc34)n2)c(OC)cc1N1CC2(CCCN2C)C1` [Example 8, N-{5-[(5-Chloro-4-pyrazolo[1,5-a]pyridin-3-ylpyrimidin-2-yl)amino]-4-methoxy-2-[5-methyl-2,5-diazaspiro[3.4]octan-2-yl]phenyl}prop-2-enamide], the pIC50 on L858R/T790M EGFR is 8.26; on Exon19 deletion EGFR, 7.65; at Wild-type EGFR, 5.93.

For the compound `C=CC(=O)Nc1cc(Nc2nccc(-c3cn(C)c4ccccc34)n2)c(OC)cc1N1CC[C@@H]2CN(C)C[C@@H]21` [Example 41, N-(2-{(3aR,6aR)-5-Methyl-2,3,3a,4,6,6a-hexahydropyrrolo[3,4-b]pyrrol-1-yl}-4-methoxy-5-{[4-(1-methylindol-3-yl)pyrimidin-2-yl]amino}phenyl)prop-2-enamide], the pIC50 is 7.53 at L858R/T790M EGFR, 7.54 on Exon19 deletion EGFR and 5.73 on Wild-type EGFR.

As to `C=CC(=O)Nc1cc(Nc2ncc(Cl)c(-c3cnn4ccccc34)n2)c(OC)cc1N1CCN(C(=O)[C@H](C)N)CC1` [Example 11, (S)—N-{2-[4-(2-Aminopropanoyl)piperazin-1-yl]-5-[(5-chloro-4-pyrazolo[1,5-a]pyridin-3-ylpyrimidin-2-yl)amino]-4-methoxyphenyl}prop-2-enamide], the pIC50 was 7.73 at L858R/T790M EGFR, 7.54 at Exon19 deletion EGFR and 5.80 on Wild-type EGFR.

Take `C=CC(=O)Nc1cc(Nc2nccc(-c3cnn4c3CCCC4)n2)c(OC)cc1N(C)CCN(C)C` [Example 42, N-(2-{2-Dimethylaminoethyl-methylamino}-4-methoxy-5-{[4-(4,5,6,7-tetrahydropyrazolo[1,5-a]pyridin-3-yl)pyrimidin-2-yl]amino}phenyl)prop-2-enamide]: the values for the negative logarithm of the IC50 (pIC50) at L858R/T790M EGFR, at Exon19 deletion EGFR and at Wild-type EGFR were 8.29, 8.28 and 6.34, respectively.

In the case of `C=CC(=O)Nc1cc(Nc2ncc(C)c(-c3cn(C)c4ccccc34)n2)c(OC)cc1N1CC[C@@H](N(C)C)C1` [Example 20, N-(2-{(3R)-3-Dimethylaminopyrrolidin-1-yl}-4-methoxy-5-{[5-methyl-4-(1-methylindol-3-yl)pyrimidin-2-yl]amino}phenyl)prop-2-enamide], the negative logarithm of the IC50 (pIC50) was 8.28 on L858R/T790M EGFR, 8.13 on Exon19 deletion EGFR and 6.71 at Wild-type EGFR.

With `C=CC(=O)Nc1cc(Nc2ncc(C)c(-c3cnn4ccccc34)n2)c(OC)cc1C1=CCN(C)CC1` [Example 1, N-{4-Methoxy-2-[1-methyl-3,6-dihydro-2H-pyridin-4-yl]-5-[(5-methyl-4-pyrazolo[1,5-a]pyridin-3-ylpyrimidin-2-yl)amino]phenyl}prop-2-enamide], the negative-log IC50 (pIC50) on L858R/T790M EGFR is 8.30; on Exon19 deletion EGFR it was 8.12; on Wild-type EGFR it was 6.32.

One may read the pIC50 as −log10 of the IC50, conventionally taken in molar units.
